We go through 1 substance from patent publication US20110312877A1, “ENGINEERED TUNABLE NANOPARTICLES FOR DELIVERY OF THERAPEUTICS, DIAGNOSTICS, AND EXPERIMENTAL COMPOUNDS AND RELATED COMPOSITIONS FOR THERAPEUTIC USE” (APARNA BIOSCEIENCES, priority 2008, published 2011).

Where no end group is shown, it is not given here.

This test concerns HRP-labeled IgG. Nature of the test: PEI-PEG-Peptide antibody binding and free peptide competition (ELISA). Particulars: peptide 0 added after antibody, lowering competition (FIG. 1C). As for the experimental part:
PPP0 (Pei-PEG-Peptide0) was diluted into the coating buffer (1×TBS, pH7.2) (final concentration: 30 μg/ml) and immediately coated 96-well microplate with 100 µl per well of the diluted PPP0 solution. The plates were sealed and incubated overnight at room temperature.
Wells were aspirated and washed with 300 µl of washing buffer (1×TBS containing 0.1% Tween 20, pH 7.4). The procedure was repeated two more times for a total of three washes
In the next step plates were blocked by adding 300 µl 1% BSA in TBS and incubating for two hours.
[…] Next, 50 µl of HRP-labeled IgG (˜3 ug/ml in binding buffer) was added to each of the wells. The plate was shaken on a horizontal microplate shaker at 500±50 rpm for 10 rain and then incubate at 37° C. for 2 hours. After incubation, wells were washed 5 times with washing buffer to remove the competitors and HRP-IgG.
150 µl per well of freshly prepared substrate solution was added and incubated for 25-30 min at room temperature. The reaction was stopped by adding 70 µl of 2NH2SO4 into each well. Plate was gently tapped to ensure a thorough mixing. Optical density of each well was measured immediately, using a microplate reader set to 450 nm. Data was analyzed GraphPad Prism software.
On the technique in general: In an ELISA, binding on a coated surface is turned into a signal by an enzyme label.

Regarding “PPP: Fc binding peptide (HWRGWVC)-PEG-PEI conjugate made with SCM-PEG-Mal (3400) and PEI 2K (also: conjugated to PEG(3400)-PEI 2K via SCM-PEG-Mal, site not given here)”, the “off-rate for antibody dissociation from PPP” value is on record as “long”.
